In PMC12288536, “Development of an atrazine immunoassay based on highly catalytically active Au@PtNPs and specific nanobody” (Research Square, 2025):

Experiments:
Nanobody-26 = assay: ic-ELISA based on atrazine nanobody (indirect competitive); assay type: binding, alpaca; conditions: for IC50 (Nanobody): coating antigen 2e-BSA; for CR% (Nanobody): cross-reaction = IC50(atrazine)/IC50(analog)
Description: In this study, ic-ELISA was first used to assess the effect of two coating antigens on the sensitivity of the nanobody. The optimal concentrations of nanobody and coating antigen were confirmed by the checkerboard method, and the sensitivity of nanobody was evaluated under optimal conditions. Detailed procedures for sensitivity assessment of nanobody were presented in the Supplementary Material.
Cross-reactivity evaluation was performed using the developed ic-ELISA for atrazine, simazine, terbuthylazine, terbutryn, cyanuric acid, ametryn, melamine, atrazine-2-hydroxy and 2-chloro-4,6-diamino-1,3,5-triazine. The above compounds were prepared into standard solutions at certain concentrations, and the standard inhibition curves were established. The cross-reactions were calculated according to the respective IC50 obtained from the standard inhibition curves and the following formula: Cross-reaction(CR%)=IC50(atrazine)∕IC50(the other structurally similar compound)

Au@PtNPs-nanobody probe = assay: dc-ELISA based on Au@PtNPs-nanobody probe (direct competitive), incl. matrix effect evaluation; assay type: binding, alpaca; conditions: for CR% (Au@PtNPs-nanobody): cross-reaction = IC50(atrazine)/IC50(analog); for IC50 (Au@PtNPs-nanobody): optimal conditions, 1×PBS containing 5% methanol
Description: The sodium chloride interference method was used to determine the optimal conditions for coupling. Adjust the Au@PtNPs-145 nm (10 mL) to the optimal pH with 0.1 M K2CO3, then the optimal amount of nanobody and BSA (0.1 g) were added dropwise to the solution and stirred for 30 minutes. PEG20000 (0.05 g) was then added to the above solution and incubated at 4°C overnight after stirring for 30 minutes. The probe was purified by fractionation and centrifugation at 4°C, and the precipitate was collected and re-dissolved in 1 mL of probe diluent (pH 7.2, PBS buffer containing 1% sucrose, 0.1% BSA, 0.1% Tween 20 and 0.1% alginate) at 4°C for storage and further use.
Au@PtNPs-nanobody was used to develop a new dc-ELISA, and the optimal concentrations of probe and coating antigen were confirmed by the checkerboard method, and the sensitivity of dc-ELISA was evaluated under optimal conditions. The cross-reactivity of the dc-ELISA to atrazine analogs was also evaluated to compare with the specificity of ic-ELISA.
Tap water, river water and soil without atrazine were selected as samples for the evaluation of matrix effects. The effect of tap water, river water and soil on the sensitivity of the detection method was evaluated using two newly developed immunoassay methods based on Au@PtNPs-nanobody. The accuracy of the developed method for real samples was also verified using high performance liquid chromatography (HPLC). The solid sample (10 g) was simultaneously extracted with 20 ml of methanol in a vortex mixer for 15 minutes. The mixture was then centrifuged at 4000 rpm for 5 minutes and the supernatant was collected, diluted appropriately and analyzed by HPLC. After confirming that the samples were free of atrazine, atrazine solution was added to the samples so that the final concentrations of atrazine in the samples were 1 μg/mL, 5 μg/mL, and 10 μg/mL, and then the samples were subjected to dc-ELISA. HPLC was also used for validation.
Considering the real samples detection, complex matrix can affect the recognition and binding between antibodies and coating antigens/analytes, which seriously interferes with the performance of the immunoassay and affects the accuracy of the analytical results. Therefore, matrix effects should be minimized or eliminated during sample analysis to ensure the accuracy of the immunoassay method. The simplest method for matrix elimination or reduction is to dilute the sample with the assay buffer. In this study, tap water, river water and soil were selected for matrix effect evaluation. The tap water samples confirmed to be none of atrazine were diluted directly with 1×PBS to a total dilution ratio of 2-, 4-, 8-, and 16-fold, and then different concentrations of atrazine solution were prepared with these obtained buffer solutions, respectively. […] But, tap water samples diluted […] had higher IC50 when compared with assay buffer or other diluted samples. […] Therefore, the 4-fold dilution was selected for the tap water samples. Similarly, river water samples diluted 4-fold and 8-fold had higher IC50 values compared to assay buffer or other diluted samples. […] Therefore, 16-fold dilution was selected for the river water sample (Fig. 4C). Soil samples without atrazine were used as blank samples and extracted with methanol, then diluted with 1×PBS resulting in a total dilution ratio of 10, 20, 40, 60 and 80-fold. Atrazine standard solutions were prepared using the above obtained buffer solutions. […] When the soil matrix was diluted 60 and 80-fold, there was no significant difference between their maximum absorbance and IC50 . Therefore, the 60-fold dilution was selected for the next spike and recovery study. Spiked-recovery validation using both HPLC and dc-ELISA to evaluate the precision of the dc-ELISA. […] Also, the results of the dc-ELISA method were approximately consistent with that of HPLC.

SMILES	IC50 (Nanobody) (Nanobody-26)	CR% (Nanobody) (Nanobody-26)	CR% (Au@PtNPs-nanobody) (Au@PtNPs-nanobody probe)	IC50 (Au@PtNPs-nanobody) (Au@PtNPs-nanobody probe)	CR% (Nanobody) (Nanobody-26; listed as ametryn)	CR% (Nanobody) (Nanobody-26; listed as simazine)	CR% (Au@PtNPs-nanobody) (Au@PtNPs-nanobody probe; listed as simazine)	CR% (Nanobody) (Nanobody-26; listed as terbutryn)	CR% (Au@PtNPs-nanobody) (Au@PtNPs-nanobody probe; listed as terbutryn)
Nc1nc(N)nc(Cl)n1 [2-chloro-4,6-diamino-1,3,5-triazine]	1.1 µg/mL	5.40%	3.42%	0.93 µg/mL	–	–	–	–	–
CCNc1nc(NC(C)C)nc(SC)n1 [Ametryn]	0.23 µg/mL	27.4%	3.55%	0.90 µg/mL	about 30%	–	–	–	–
CCNc1nc(NC(C)C)[nH]c(=O)n1 [Atrazine-2-hydroxy]	> 100 µg/mL	< 0.1%	< 0.1%	> 100 µg/mL	–	–	–	–	–
CCNc1nc(Cl)nc(NC(C)C)n1 [Atrazine]	0.062 µg/mL	100%	100%	0.032 µg/mL	–	–	–	–	–
Oc1nc(O)nc(O)n1 [Cyanuric acid]	> 100 µg/mL	< 0.1%	< 0.1%	> 100 µg/mL	–	–	–	–	–
Nc1nc(N)nc(N)n1 [Melamine]	> 100 µg/mL	< 0.1%	< 0.1%	> 100 µg/mL	–	–	–	–	–
CCNc1nc(Cl)nc(NCC)n1 [Simazine]	0.18 µg/mL	33.6%	6.01%	0.53 µg/mL	–	about 30%	less than 7%	–	–
CCNc1nc(Cl)nc(NC(C)(C)C)n1 [Terbuthylazine]	0.085 µg/mL	72.7%	10.9%	0.29 µg/mL	–	–	–	–	–
CCNc1nc(NC(C)(C)C)nc(SC)n1 [Terbutryn]	> 100 µg/mL	< 0.1%	< 0.1%	> 100 µg/mL	–	–	–	greater than 70%	greater than 10%
CCNc1nc(N)nc(Cl)n1 [deisopropylatrazine]	–	–	less than 7%	–	–	–	–	–	–
